The subject of this assay is HBsAg. Description: Anti-HBSAg Assay (Procedure B), HBsAg. Format: cell-based, hepatitis B virus. More on the design: HBsAg Ave.: unit not given here. In outline: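 HBV-producing Hep G2 2.2.15 cells were treated with five 3-fold dilutions for 9 days at 37 °C, with compound-containing medium renewed every 3 days. Secreted HBsAg measured by capture enzyme immunoassay on diluted supernatants. IC50 derived by non-linear regression of % inhibition versus PBS control.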

Each structure is given as a SMILES string.

Consider `COC(=O)C1=COC(O)C2C1C(O)C(O)C2(C)O` (mixture of isomers) [lamiridosin], for which, under “9.375 μg/mL”, the “HBsAg Ave.” value amounted to 1.152, the “HBsAg Inhibition %” value is recorded as 0%, the “HBsAg OD1” value amounted to 1.080 and the “HBsAg OD2” value came to 1.220. For the same molecule, the “HBsAg OD3” value (9.375 μg/mL) is 1.157. In addition, for the setting “18.75 μg/mL”, the “HBsAg Ave.” value was found to be 1.140, the “HBsAg Inhibition %” value is on record as 0%, the “HBsAg OD1” value came out at 1.208 and the “HBsAg OD2” value came out at 1.105. For the same molecule, the “HBsAg OD3” value (18.75 μg/mL) is 1.107. Moreover, where the note is “37.5 μg/mL”, the “HBsAg Ave.” value was determined as 0.765, the “HBsAg Inhibition %” value turned out to be 29.4%, the “HBsAg OD1” value is listed as 0.797 and the “HBsAg OD2” value was 0.744. The “HBsAg OD3” value (37.5 μg/mL) is reported as 0.755. The “anti-HBSAg assay activity (in words)” value (37.5 μg/ml, Table 2) was “inactive”.
